# Experimental data reported in PMC8424217 (The Journal of Biological Chemistry, 2021).
# Peptide text beside a SMILES is read from it. * marks the point of attachment. Palmitoyl = CCCCCCCCCCCCCCCC(=O)*
# Legend:
# Circular dichroism = assay type: physicochemical; settings: peptide 0.2 mg mL^−1, 20 °C
# Method: Circular dichroism (CD) analyses were performed in a JASCO J-815 (JAPAN Spectroscopy & Chromatography Technology) spectropolarimeter coupled to a temperature controller Peltier. Samples were dissolved at 0.2 mg mL^−1 in either water, 0.5 mg mL^−1 DPC (dodecylphophocholine), 0.1 mg mL^−1 SDS (sodium dodecyl sulfate), or TFE (2,2,2-trifluoroethanol) aqueous solutions at concentrations of 20%, 50%, and 80%. The CD spectra were recorded in the measured range of 200–250 nm using a scan speed of 50 nm min^−1, and the baseline was corrected by subtraction of the solvent spectrum. The temperature was set to 20 °C.
# hUT [1] = biological target: T1, hUT (Homo sapiens, UniProt Q9UKP6); assay: G12 activation, BRET biosensor, HEK 293-hUT cells; assay type: cell-based; parameters: expressed in transfected cells
# T1 sequence (Q9UKP6 1-389): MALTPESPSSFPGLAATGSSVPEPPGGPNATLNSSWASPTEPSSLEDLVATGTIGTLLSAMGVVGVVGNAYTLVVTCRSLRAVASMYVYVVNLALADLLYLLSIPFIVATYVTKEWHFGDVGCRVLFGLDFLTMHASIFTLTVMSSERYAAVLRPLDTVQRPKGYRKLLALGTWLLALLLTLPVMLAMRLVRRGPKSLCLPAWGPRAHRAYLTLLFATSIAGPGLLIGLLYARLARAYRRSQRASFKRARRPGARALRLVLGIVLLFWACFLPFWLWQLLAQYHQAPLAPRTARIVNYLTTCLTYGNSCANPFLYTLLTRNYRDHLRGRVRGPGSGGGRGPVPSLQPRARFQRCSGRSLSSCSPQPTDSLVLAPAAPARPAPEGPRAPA
# Method: (§1) Figure 6 Signaling signature of hUT-pepducins following hUT receptor activation. […] Each curve represents mean ± SEM of at least three independent concentration-response experiments performed in triplicate.
# (§2) HEK 293-hUT cells were grown in DMEM culture media supplemented with 10% foetal bovine serum, HEPES, sodium pyruvate, and G418 (200 μg mL^−1). Passages were performed when cells reached 80% of confluency. Cells were initially plated in 96-well plates at a density of 10,000 cells/well. […] Then, to evaluate Gq and G12 activation, 10 μl of a 1/20 dilution (diluted before use) of coelenterazine 400A (stock at 1 mM in ethanol) in Kreb's buffer and 10 μl of the 10× appropriate concentration of peptide were added, and the luminescence was evaluated with an Infinite M1000 PRO. […] Readings were performed after 5 min using an Infinite M1000 PRO. […] BRET ratio was determined by calculating the ratio of the light emitted by GFP10 over the light emitted by the RlucII.
# hUT [2] = biological target: T1, hUT; assay: β-arrestin 2 conformational change, BRET biosensor, HEK 293-hUT cells; assay type: cell-based; parameters: expressed in transfected cells; settings: 15 min at RT
# Method: as §1
# HEK 293-hUT cells were grown in DMEM culture media supplemented with 10% foetal bovine serum, HEPES, sodium pyruvate, and G418 (200 μg mL^−1). Passages were performed when cells reached 80% of confluency. Cells were initially plated in 96-well plates at a density of 10,000 cells/well. The following day, the medium is replaced with DMEM culture media supplemented with 2.5% foetal bovine serum (FBS), and 12 h later, cells were transiently transfected with 25 ng/well of a Gq-polycistronic, 25 ng/well of a G12-polycistronic BRET sensor, 25 ng/well of a G13-polycistronic BRET sensor, 2.5 ng/well pIRESB RLucII-ERK-NLS-GFP BRET sensor, 2.5 ng β-arrestin 1-polycistronic BRET sensor, or 2.5 ng β-arrestin 2-polycistronic BRET sensor using Lipofectamine2000 at a ratio of 3:1 (Lipofectamine/plasmid DNA) in serum-free Opti-MEM ([44], [81]). Sixteen hours posttransfection, medium was replaced with DMEM supplemented with 10% FBS, HEPES, sodium pyruvate and G418 (200 μg mL^−1) and cell growth was resumed for another 16 h. Cells were washed with 150 μl PBS solution supplemented with 0.1% of glucose and then incubated with 80 μl of this solution for 2 h. Then, to evaluate Gq and G12 activation, 10 μl of a 1/20 dilution (diluted before use) of coelenterazine 400A (stock at 1 mM in ethanol) in Kreb's buffer and 10 μl of the 10× appropriate concentration of peptide were added, and the luminescence was evaluated with an Infinite M1000 PRO. […] Readings were performed after 5 min using an Infinite M1000 PRO. Filters were set at 410 nm and 515 nm for detecting the Renilla luciferase II (RlucII, donor) and green fluorescent protein 10 (GFP10, acceptor) light emission, respectively. BRET ratio was determined by calculating the ratio of the light emitted by GFP10 over the light emitted by the RlucII.
# hUT [3] = biological target: T1, hUT; assay: Antagonism of hUII- or URP-mediated G12 activation, BRET, HEK 293-hUT cells; assay type: cell-based; parameters: expressed in transfected cells; settings: pepducin 10^−5 M for 15 min, then hUII or URP, at least three experiments in triplicate
# Method: Figure 10 Effect of hUT-pepducins on hUT-mediated G12activation. […] Each curve represents mean ± SEM of at least three independent concentration–response experiments performed in triplicate.
# as §2
# HEK 293 cells = assay: EGFR transactivation (EGFR-GFP internalization, confocal microscopy), untransfected/mock HEK 293 cells; assay type: cell-based; settings: HEK 293, 30 min
# Method: Figure 7 UT-pepducins-mediated transactivation of EGFR following hUT activation. […] EGFR internalization, following hUT stimulation with various ligands for 30 min, was visualized using confocal microscopy. The images shown are from representative experiments repeated at least three times.
# HEK 293 and HEK 293-hUT cells, transiently transfected with cDNA encoding fluorescently labeled EGFR (EGFR-GFP) (2 μg), were plated onto 35-mm glass-bottomed culture dishes (MatTek Corp). Following stimulation, cells were washed once with PBS and fixed in 4% paraformaldehyde for 15 min. To study the involvement of Gq in EGFR internalization, cells were treated with YM254890 (100 nM) for 1h prior peptide treatments. […] EGFR-GFP internalization was visualized using a combination of excitation (488 nm) and emission filters (499 and 520 nm). […]
# endogenously expressed hUT activation in untransfected HEK 293 cells.HEK 293 expressing low level of wild type hUT and transfected […]
# using confocal microscopy. The image shown are from representative experiments repeated at least three times. Arrows indicate cellular aggregates representing EGFR internalization.
# (1 picture or pasted object on this page, not shown here)
Emax at 1 µM (hUT [1]; read-out: G12 activation Emax) [%],Compound,CD conformation in SDS (Circular dichroism; 0.1 mg mL^−1 SDS),CD conformation in DPC (Circular dichroism; 0.5 mg mL^−1 DPC),CD conformation in TFE (Circular dichroism; TFE 80%),CD conformation in water (Circular dichroism; water),"Emax at 1 µM (hUT [1]; read-out: G12 activation, maximum efficacy at 10^−6 M) [%]","EC50 (hUT [2]; mean ± SEM, n = 3–5, read-out: β-arrestin 2 pEC50 (converted)) [nM]","Emax (hUT [2]; percentage of the activation induced by hUII (10^−6 M), mean ± SEM, n = 3–5) [%]",hUII- and URP-mediated G12 activation after pepducin pretreatment (hUT [3]),EGFR internalization in untransfected/mock-transfected cells (HEK 293 cells),"Emax at 1 µM (hUT [2]; at 10^−6 M, percentage of the activation induced by hUII (10^−6 M), read-out: β-arrestin 2, maximum efficacy at 10^−6 M) [%]"
–,"CCCCCCCCCCCCCCCC(=O)N[C@@H](Cc1c[nH]c2ccccc12)C(=O)N[C@@H](CC(C)C)C(=O)N[C@@H](CO)C(=O)N[C@@H](CCC(N)=O)C(=O)N[C@@H](CCCNC(=N)N)C(=O)N[C@@H](C)C(=O)N[C@@H](CO)C(=O)N[C@@H](Cc1ccccc1)C(=O)N[C@@H](CCCCN)C(=O)N[C@@H](CCCNC(=N)N)C(=O)N[C@@H](C)C(=O)N[C@@H](CCCNC(=N)N)C(=O)N[C@@H](CCCNC(=N)N)C(N)=O [[Trp^1, Leu^2]hUT-Pep3] (Palmitoyl-WLSQRASFKRARR-NH2)",β-sheet conformation (lower peak at 216 nm),less structured α-helix conformation,"fold as an α-helix (dark green, TFE 80%, lower peaks at 205 and 216 nm)",nonstructured shape (random coil),5,18.2,19 ± 3,completely abolished hUII- and URP-associated G12 stimulation,–,–
98 ± 3,"CC(C)[C@H](NC(=O)[C@@H]1CSSC[C@H](NC(=O)[C@H](CC(=O)O)NC(=O)[C@@H]2CCCN2C(=O)[C@@H](NC(=O)[C@@H](N)CCC(=O)O)[C@@H](C)O)C(=O)N[C@@H](Cc2ccccc2)C(=O)N[C@@H](Cc2c[nH]c3ccccc23)C(=O)N[C@@H](CCCCN)C(=O)N[C@@H](Cc2ccc(O)cc2)C(=O)N1)C(=O)O [hUII, urotensin II, reference compound]",–,–,–,–,–,–,–,–,limited EGFR internalization can be observed in untransfected HEK 293 cells,–
–,CCCCCCCCCCCCCCCC(=O)N[C@@H](CCCNC(=N)N)C(=O)N1CCC[C@H]1C(=O)N[C@@H](CC(C)C)C(=O)N[C@@H](CC(=O)O)C(=O)N[C@H](C(=O)N[C@H](C(=O)N[C@@H](CCC(N)=O)C(=O)N[C@@H](CCCNC(=N)N)C(=O)N1CCC[C@H]1C(=O)N[C@@H](CCCCN)C(=O)NCC(=O)N[C@@H](Cc1ccc(O)cc1)C(N)=O)C(C)C)[C@@H](C)O [hUT-Pep2] (Palmitoyl-RPLDTVQRPKGY-NH2),–,–,–,–,–,–,–,completely abolished hUII- and URP-associated G12 stimulation,–,~15
